The text below walks through data of patent publication US20260159512A1, “BCAT2 INHIBITORS” (AGIOS PHARMACEUTICALS, INC., priority 2021, published 2026).

Each structure is given as a SMILES string. Where only a bound is given, the exact number is not on record here.

Common to all, as to details: average where tested multiple times
The target in assay [1] is T1, BCAT2 (Homo sapiens, UniProt O15382).
T1 sequence (O15382 28-392): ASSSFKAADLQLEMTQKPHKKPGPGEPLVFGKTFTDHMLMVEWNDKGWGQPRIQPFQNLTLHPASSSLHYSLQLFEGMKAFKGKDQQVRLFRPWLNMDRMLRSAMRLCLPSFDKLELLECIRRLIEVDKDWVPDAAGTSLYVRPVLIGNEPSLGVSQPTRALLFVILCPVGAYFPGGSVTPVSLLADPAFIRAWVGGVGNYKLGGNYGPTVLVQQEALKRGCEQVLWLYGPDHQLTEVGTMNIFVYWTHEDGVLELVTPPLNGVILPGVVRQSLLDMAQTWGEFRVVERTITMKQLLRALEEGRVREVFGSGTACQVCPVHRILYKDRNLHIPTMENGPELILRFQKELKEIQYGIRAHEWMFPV
Nature of the assay: BCAT2 in vitro cell inhibition using engineered A549 cells (KMV cell assay, 13C6-KMV by LC-MS/MS). The format is cell-based. Set-up: The result was an engineered A549 cell line that expressed endogenous BCAT2; endogenous in cells; host or cells: A549 cells with MUT and BCAT1 knocked out by CRISPR/CAS9; key to BCAT2 Cell Inhibition: A: less than or equal to 0.100 μM; B: greater than 0.100 and less than or equal to 0.500 μM; C: greater than 0.500 and less than or equal to 1.000 μM; d: greater than 1.000 μM; E: no fit.

Assay [2] has as its target T1, BCAT2. The assay can be described thus: BCAT2 in vitro enzyme inhibition assay (resazurin/diaphorase-coupled fluorescence). The format is biochemical. A digest of the protocol: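 Coupled fluorescence readout: glutamate formed from L-leucine/α-ketoglutarate transamination drives GDH/NAD/diaphorase reduction of resazurin (Ex 540/Em 590). Human BCAT2 was first exposed 1 h at room temperature to compound, top final 100 μM in 3-fold, 10-point series; substrate reaction ran 1 h before SDS quench, in technical duplicate with DMSO max and enzyme-free min controls.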

Assay [3] deals with T2, hBCAT1 (Homo sapiens, UniProt P54687).
T2 sequence (P54687 1-386): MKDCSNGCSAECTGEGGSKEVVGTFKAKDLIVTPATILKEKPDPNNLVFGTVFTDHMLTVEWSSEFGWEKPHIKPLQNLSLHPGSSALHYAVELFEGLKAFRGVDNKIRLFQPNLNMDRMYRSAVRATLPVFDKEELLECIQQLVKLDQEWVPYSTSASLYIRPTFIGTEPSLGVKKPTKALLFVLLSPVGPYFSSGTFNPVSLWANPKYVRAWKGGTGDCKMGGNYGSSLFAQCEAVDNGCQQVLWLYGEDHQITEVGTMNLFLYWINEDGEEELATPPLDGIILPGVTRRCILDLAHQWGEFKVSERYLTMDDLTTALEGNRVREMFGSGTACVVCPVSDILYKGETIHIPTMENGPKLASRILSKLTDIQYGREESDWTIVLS
The assay can be described thus: BCAT1 in vitro enzyme inhibition assay (resazurin/diaphorase-coupled fluorescence). In kind it is biochemical. The method, boiled down: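 Ten-point, 3-fold compound series (top final 100 μM, delivered 1:50 from 50× DMSO stocks) tested against hBCAT1. Inhibition detected via diaphorase-coupled resazurin fluorescence, duplicate wells, with values from repeated runs averaged.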
(In general: Resazurin is reduced to fluorescent resorufin, in cell work by metabolically active cells.)

The IC50 is the concentration that inhibits the measured activity by half. Consider `O=C(NC1CCCC(n2c(-c3ccccn3)nc3cnc(-c4cnco4)cc32)C1)c1ccc(Br)s1` (stereo not drawn) [Example 3, 5-bromo-N-(3-(6-(oxazol-5-yl)-2-(pyridin-2-yl)-1H-imidazo[4,5-c]pyridin-1-yl)cyclohexyl)thiophene-2-carboxamide], for which the results for the half-inhibitory concentration (IC50) in assay [1], in assay [2] and in assay [3] were 0.1 to 0.5 µM, not above 0.1 µM and 1 to 5 µM, respectively.
In the case of `CC(C)Cc1nc2cnc(-c3ncccn3)cc2n1[C@@H]1C[C@@H](O)C[C@H](NC(=O)c2ncc(Cl)s2)C1` (stereo in doubt) [Example 397, 5-chloro-N-((1R,3S,5S)-3-hydroxy-5-(2-isobutyl-6-(pyrimidin-2-yl)-1H-imidazo[4,5-c]pyridin-1-yl)cyclohexyl)thiazole-2-carboxamide], the “BCAT2 Cell Inhibition” value in assay [1] was “E”. For the same compound, the IC50 in assay [2] is more than 1 µM; in assay [3] it was 1 to 5 µM.
For `CC(C)[C@@H](O)c1nc2cnc(-c3ncccn3)cc2n1[C@@H]1CCC[C@H](NC(=O)c2ncc(Cl)s2)C1` [Example 172, 5-chloro-N-((1S,3R)-3-(2-((R)-1-hydroxy-2-methylpropyl)-6-(pyrimidin-2-yl)-1H-imidazo[4,5-c]pyridin-1-yl)cyclohexyl)thiazole-2-carboxamide], the concentration for half-maximal inhibition (IC50) in assay [1] was 0.5 to 1 µM; in assay [2] it was not above 0.1 µM; in assay [3], less than 0.5 µM.
Turning to `Cn1cc(-c2nc3cnc(-n4nccn4)cc3n2[C@@H]2CCC[C@H](NC(=O)c3ncc(C(F)F)s3)C2)cn1` [Example 45, 5-(difluoromethyl)-N-((1S,3R)-3-(2-(1-methyl-1H-pyrazol-4-yl)-6-(2H-1,2,3-triazol-2-yl)-1H-imidazo[4,5-c]pyridin-1-yl)cyclohexyl)thiazole-2-carboxamide], the “BCAT2 Cell Inhibition” value in assay [1] is “E”. Besides, the values for the concentration for half-maximal inhibition (IC50) in assay [2] and in assay [3] were more than 1 µM and more than 5 µM, respectively.
Take `CC(C)Cc1nc2cnc(-c3cccc(F)n3)cc2n1[C@@H]1CCC[C@H](NC(=O)c2ncc(Cl)s2)C1` [Example 160, 5-chloro-N-((1S,3R)-3-(6-(6-fluoropyridin-2-yl)-2-isobutyl-1H-imidazo[4,5-c]pyridin-1-yl)cyclohexyl)thiazole-2-carboxamide]: the IC50 in assay [1] is 0.5 to 1 µM; in assay [2], not above 0.1 µM; in assay [3], 0.5 to 1 µM.
For the compound `CNC(=O)c1ccc2c(c1)nc(-c1ccccn1)n2C1CC(NC(=O)c2ccc(Br)s2)CN(C(C)=O)C1` (stereo not drawn) [Example 287, 1-(1-acetyl-5-(5-bromothiophene-2-carboxamido)piperidin-3-yl)-N-methyl-2-(pyridin-2-yl)-1H-benzo[d]imidazole-5-carboxamide], the “BCAT2 Cell Inhibition” value in assay [1] is “E”. Moreover, the figures for the IC50 in assay [2] and in assay [3] were 0.1 to 0.5 µM and more than 5 µM, respectively.
For the compound `O=C(NC1CCCC(n2c(-c3ccccn3)nc3cnc(-c4nnco4)cc32)C1)c1ccc(Br)s1` (stereo not drawn) [Example 1, N-(3-(6-(1,3,4-oxadiazol-2-yl)-2-(pyridin-2-yl)-1H-imidazo[4,5-c]pyridin-1-yl)cyclohexyl)-5-bromothiophene-2-carboxamide], the IC50 in assay [1] is 0.1 to 0.5 µM; in assay [2], not above 0.1 µM; in assay [3], 1 to 5 µM.
The like results for `CC(=O)N1C[C@H](NC(=O)c2ncc(C(F)F)s2)C[C@H](n2c(-c3ccccc3F)nc3cnc(-c4ncco4)cc32)C1` [Example 128, N-((3R,5S)-1-acetyl-5-(2-(2-fluorophenyl)-6-(oxazol-2-yl)-1H-imidazo[4,5-c]pyridin-1-yl)piperidin-3-yl)-5-(difluoromethyl)thiazole-2-carboxamide] were, in that order, not above 0.1 µM, not above 0.1 µM and less than 0.5 µM.
For `O=C(N[C@H]1CCC[C@@H](n2c(Oc3ccccc3F)nc3cnc(-c4nc[nH]n4)cc32)C1)c1ncc(Cl)s1` [Example 192, 5-chloro-N-((1S,3R)-3-(2-(2-fluorophenoxy)-6-(1H-1,2,4-triazol-3-yl)-1H-imidazo[4,5-c]pyridin-1-yl)cyclohexyl)thiazole-2-carboxamide], the IC50 in assay [1] is more than 1 µM; in assay [2], not above 0.1 µM; in assay [3], 1 to 5 µM.
Consider `CN1CC(NC(=O)c2ccc(Br)s2)CC(n2c(-c3ccccc3F)nc3cnc(-c4ncco4)cc32)C1` (stereo not drawn) [Example 117, 5-bromo-N-(5-(2-(2-fluorophenyl)-6-(oxazol-2-yl)-1H-imidazo[4,5-c]pyridin-1-yl)-1-methylpiperidin-3-yl)thiophene-2-carboxamide], for which the IC50 in assay [1] was not above 0.1 µM; in assay [2] it was not above 0.1 µM; in assay [3], 0.5 to 1 µM.
Consider `CC(C)Cc1nc2cnc(-c3cscn3)cc2n1[C@@H]1CCC[C@H](NC(=O)c2ncc(Cl)s2)C1` [Example 159, 5-chloro-N-((1S,3R)-3-(2-isobutyl-6-(thiazol-4-yl)-1H-imidazo[4,5-c]pyridin-1-yl)cyclohexyl)thiazole-2-carboxamide], for which the IC50 in assay [1] was 0.1 to 0.5 µM; in assay [2], not above 0.1 µM; in assay [3], less than 0.5 µM.
On to `O=C(NC1COCC(n2c(-c3ncccc3F)nc3cnc(-n4nccn4)cc32)C1)c1ncc(C(F)F)s1` (single isomer, unassigned) [Example 138, 5-(difluoromethyl)-N-(5-(2-(3-fluoropyridin-2-yl)-6-(2H-1,2,3-triazol-2-yl)-1H-imidazo[4,5-c]pyridin-1-yl)tetrahydro-2H-pyran-3-yl)thiazole-2-carboxamide], for which the IC50 is 0.1 to 0.5 µM in assay [1], not above 0.1 µM in assay [2] and 0.5 to 1 µM in assay [3].
As for `O=C(N[C@H]1CCC[C@@H](n2c(Nc3ccccn3)nc3cnc(-n4nccn4)cc32)C1)c1ncc(C(F)F)s1` [Example 69, 5-(difluoromethyl)-N-((1S,3R)-3-(2-(pyridin-2-ylamino)-6-(2H-1,2,3-triazol-2-yl)-1H-imidazo[4,5-c]pyridin-1-yl)cyclohexyl)thiazole-2-carboxamide], the 50% inhibitory concentration (IC50) was more than 1 µM in assay [1], 0.1 to 0.5 µM in assay [2] and more than 5 µM in assay [3].
Turning to `O=C(N[C@H]1CCC[C@@H](n2c(-c3ccccn3)nc3cnc(-c4ncco4)cc32)C1)c1ccc(Br)s1` [Example 5, 5-bromo-N-((1S,3R)-3-(6-(oxazol-2-yl)-2-(pyridin-2-yl)-1H-imidazo[4,5-c]pyridin-1-yl)cyclohexyl)thiophene-2-carboxamide], the half-maximal inhibitory concentration (IC50) in assay [1] was not above 0.1 µM; in assay [2] it was not above 0.1 µM; in assay [3], less than 0.5 µM.
Take `CNC(=O)c1cc2nc(CC(C)C)n([C@@H]3CCC[C@H](NC(=O)c4ncc(Cl)s4)[C@H]3O)c2cn1` (single isomer, unassigned) [Example 280]: the 50% inhibitory concentration (IC50) was 0.5 to 1 µM in assay [1], not above 0.1 µM in assay [2] and 1 to 5 µM in assay [3].
In the case of `CC(C)Cc1nc2cnc(-c3ncon3)cc2n1[C@@H]1CCC[C@H](NC(=O)c2ncc(Cl)s2)C1` [Example 321, 5-chloro-N-((1S,3R)-3-(2-isobutyl-6-(1,2,4-oxadiazol-3-yl)-1H-imidazo[4,5-c]pyridin-1-yl)cyclohexyl)thiazole-2-carboxamide], the IC50 in assay [1] is 0.5 to 1 µM; in assay [2] it was not above 0.1 µM; in assay [3] it was 0.5 to 1 µM.
As to `C#Cc1cnc(C(=O)N[C@H]2CCC[C@@H](n3c(-c4ccccn4)nc4cnc(-n5nccn5)cc43)C2)s1` [Example 20, 5-ethynyl-N-((1S,3R)-3-(2-(pyridin-2-yl)-6-(2H-1,2,3-triazol-2-yl)-1H-imidazo[4,5-c]pyridin-1-yl)cyclohexyl)thiazole-2-carboxamide], the half-inhibitory concentration (IC50) in assay [1] is not above 0.1 µM; in assay [2], not above 0.1 µM; in assay [3] it was less than 0.5 µM.
Take `CNc1nccc(-c2cc3c(cn2)nc(CC(C)C)n3[C@@H]2CCC[C@H](NC(=O)c3ncc(Cl)s3)C2)n1` [Example 316, 5-chloro-N-((1S,3R)-3-(2-isobutyl-6-(2-(methylamino)pyrimidin-4-yl)-1H-imidazo[4,5-c]pyridin-1-yl)cyclohexyl)thiazole-2-carboxamide]: the IC50 in assay [1] is more than 1 µM; in assay [2], not above 0.1 µM; in assay [3], 1 to 5 µM.
